{"source": "ChEMBL document CHEMBL6109129", "about": "“Discovery of Conformationally Constrained Dihydro Benzo-Indole Derivatives as Metallo-β-Lactamase Inhibitors to Tackle Multidrug-Resistant Bacterial Infections” (J Med Chem, 2025)", "key": {"Klebsiella pneumoniae [1]": {"test_system": "Klebsiella pneumoniae", "experiment": "Synergistic antibacterial activity against carbapenem-resistant Klebsiella pneumoniae 571278 assessed as reduction in microbial growth at 4 ug/ml measured after 16 to 18 hrs in presence of meropenem by microbial dilution method", "type": "functional", "settings": "dose 4 µg/ml, time 16-18 hrs"}, "Escherichia coli [2]": {"test_system": "Escherichia coli", "experiment": "Synergistic antibacterial activity against carbapenem-resistant Escherichia coli 565988 assessed as reduction in microbial growth at 16 ug/ml measured after 16 to 18 hrs in presence of meropenem by microbial dilution method", "type": "functional", "settings": "dose 16 µg/ml, time 16-18 hrs"}, "[3]": {"experiment": "Cytotoxicity in HEK293 cells assessed as inhibition of cell growth measured after 24 hrs by MTT assay", "type": "toxicity, cell-based", "settings": "human"}, "[4]": {"experiment": "Metabolic stability in mouse liver microsomes assessed as intrinsic clearance at 1 uM preincubated for 5 mins followed by NADPH addition and measured up to 60 mins by LC-MS/MS analysis", "type": "ADME, Microsome", "settings": "time < 65 min, read-out: CLH"}, "[5]": {"test_system": "Klebsiella pneumoniae subsp. pneumoniae", "experiment": "Synergistic antibacterial activity against carbapenem-resistant Klebsiella pneumoniae subsp. pneumoniae BAA-2472 assessed as reduction in microbial growth at 8 ug/ml measured after 16 to 18 hrs in presence of meropenem by microbial dilution method", "type": "functional", "settings": "dose 8 µg/ml, time 16-18 hrs"}, "Escherichia coli [6]": {"test_system": "Escherichia coli", "experiment": "Synergistic antibacterial activity against carbapenem-resistant Escherichia coli BAA-2471 assessed as reduction in microbial growth at 0.5 ug/ml measured after 16 to 18 hrs in presence of meropenem by microbial dilution method", "type": "functional", "settings": "dose 0.5 µg/ml, time 16-18 hrs"}, "Escherichia coli [7]": {"test_system": "Escherichia coli", "experiment": "Synergistic antibacterial activity against carbapenem-resistant Escherichia coli 567975 assessed as reduction in microbial growth at 4 ug/ml measured after 16 to 18 hrs in presence of meropenem by microbial dilution method", "type": "functional", "settings": "dose 4 µg/ml, time 16-18 hrs"}, "[8]": {"experiment": "Inhibition of IMP-1 (unknown origin) using FC5 as substrate preincubated for 10 mins followed by substrate addition and measured immediately by fluorescence based analysis", "design": "species or system Bacteria"}, "Escherichia coli [9]": {"test_system": "Escherichia coli", "experiment": "Synergistic antibacterial activity against carbapenem-resistant Escherichia coli BAA-2469 assessed as reduction in microbial growth at 0.5 ug/ml measured after 16 to 18 hrs in presence of imipenem by microbial dilution method", "type": "functional", "settings": "dose 0.5 µg/ml, time 16-18 hrs"}, "[10]": {"experiment": "Apparent permeability the compound in PBS buffer at pH 7.4 measured after 5 hrs by LC-MS/MS analysis", "type": "ADME", "settings": "not told"}, "Escherichia coli [11]": {"test_system": "Escherichia coli", "experiment": "Synergistic antibacterial activity against carbapenem-resistant Escherichia coli BAA-2471 assessed as reduction in microbial growth at 8 ug/ml measured after 16 to 18 hrs in presence of imipenem by microbial dilution method", "type": "functional", "settings": "dose 8 µg/ml, time 16-18 hrs"}, "[12]": {"experiment": "Kinetic solubility of the compound in PBS buffer at pH 7.4 measured after 24 hrs by HPLC analysis", "type": "physicochemical", "settings": "read-out: Kinetic_solubility"}, "Escherichia coli [13]": {"test_system": "Escherichia coli", "experiment": "Synergistic antibacterial activity against carbapenem-resistant Escherichia coli 541588 assessed as reduction in microbial growth at 16 ug/ml measured after 16 to 18 hrs in presence of meropenem by microbial dilution method", "type": "functional", "settings": "dose 16 µg/ml, time 16-18 hrs"}, "Klebsiella pneumoniae [14]": {"test_system": "Klebsiella pneumoniae", "experiment": "Synergistic antibacterial activity against carbapenem-resistant Klebsiella pneumoniae 538961 assessed as reduction in microbial growth at 4 ug/ml measured after 16 to 18 hrs in presence of imipenem by microbial dilution method", "type": "functional", "settings": "dose 4 µg/ml, time 16-18 hrs"}, "[15]": {"target": "Metallo-beta-lactamase type 2 (Bacteria) (UniProt C7C422)", "sequence (C7C422 whole entry)": "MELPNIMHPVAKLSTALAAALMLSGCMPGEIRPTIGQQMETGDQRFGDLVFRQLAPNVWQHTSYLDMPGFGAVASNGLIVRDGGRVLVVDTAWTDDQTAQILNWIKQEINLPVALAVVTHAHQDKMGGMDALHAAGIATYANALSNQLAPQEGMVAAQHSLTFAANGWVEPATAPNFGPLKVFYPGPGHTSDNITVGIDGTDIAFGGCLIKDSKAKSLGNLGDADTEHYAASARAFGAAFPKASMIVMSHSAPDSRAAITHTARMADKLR", "experiment": "Induction of thermal stabilization of NDM-1 (unknown origin) assessed as melting temperature at 25 uM by differential scanning fluorimetry analysis"}, "Escherichia coli [16]": {"test_system": "Escherichia coli", "experiment": "Synergistic antibacterial activity against carbapenem-resistant Escherichia coli BAA-2471 assessed as reduction in microbial growth at 8 ug/ml measured after 16 to 18 hrs in presence of meropenem by microbial dilution method", "type": "functional", "settings": "dose 8 µg/ml, time 16-18 hrs"}, "Klebsiella pneumoniae [17]": {"test_system": "Klebsiella pneumoniae", "experiment": "Synergistic antibacterial activity against carbapenem-resistant Klebsiella pneumoniae 565345 assessed as reduction in microbial growth at 16 ug/ml measured after 16 to 18 hrs in presence of imipenem by microbial dilution method", "type": "functional", "settings": "dose 16 µg/ml, time 16-18 hrs"}, "[18]": {"experiment": "Metabolic stability in human liver microsomes assessed as parent compound remaining at 1 uM measured at 60 mins in presence of NADPH by LC-MS/MS analysis", "type": "ADME, Microsome", "settings": "read-out: Stability"}, "Escherichia coli [19]": {"test_system": "Escherichia coli", "experiment": "Synergistic antibacterial activity against carbapenem-resistant Escherichia coli BAA-2469 assessed as reduction in microbial growth at 8 ug/ml measured after 16 to 18 hrs in presence of meropenem by microbial dilution method", "type": "functional", "settings": "dose 8 µg/ml, time 16-18 hrs"}, "[20]": {"experiment": "Plasma protein binding in human assessed as unbound fraction at 10 uM measured after 5 hrs by LC-MS/MS analysis", "type": "ADME, cell-free"}, "Escherichia coli [21]": {"test_system": "Escherichia coli", "experiment": "Synergistic antibacterial activity against carbapenem-resistant Escherichia coli 571307 assessed as reduction in microbial growth at 4 ug/ml measured after 16 to 18 hrs in presence of imipenem by microbial dilution method", "type": "functional", "settings": "dose 4 µg/ml, time 16-18 hrs"}, "Enterobacter cloacae [22]": {"test_system": "Enterobacter cloacae", "experiment": "Synergistic antibacterial activity against carbapenem-resistant Enterobacter cloacae BAA-2468 assessed as reduction in microbial growth at 8 ug/ml measured after 16 to 18 hrs in presence of imipenem by microbial dilution method", "type": "functional", "settings": "dose 8 µg/ml, time 16-18 hrs"}, "[23]": {"test_system": "Klebsiella pneumoniae subsp. pneumoniae", "experiment": "Synergistic antibacterial activity against carbapenem-resistant Klebsiella pneumoniae BAA-2470 assessed as reduction in microbial growth at 16 ug/ml measured after 16 to 18 hrs in presence of imipenem by microbial dilution method", "type": "functional", "settings": "dose 16 µg/ml, time 16-18 hrs"}, "[24]": {"test_system": "Klebsiella pneumoniae subsp. pneumoniae", "experiment": "Synergistic antibacterial activity against carbapenem-resistant Klebsiella pneumoniae subsp. pneumoniae BAA-2470 assessed as reduction in microbial growth at 0.5 ug/ml measured after 16 to 18 hrs in presence of meropenem by microbial dilution method", "type": "functional", "settings": "dose 0.5 µg/ml, time 16-18 hrs"}, "Klebsiella pneumoniae [25]": {"test_system": "Klebsiella pneumoniae", "experiment": "Synergistic antibacterial activity against carbapenem-resistant Klebsiella pneumoniae 565345 assessed as reduction in microbial growth at 4 ug/ml measured after 16 to 18 hrs in presence of imipenem by microbial dilution method", "type": "functional", "settings": "dose 4 µg/ml, time 16-18 hrs"}, "Enterobacter cloacae [26]": {"test_system": "Enterobacter cloacae", "experiment": "Synergistic antibacterial activity against carbapenem-resistant Enterobacter cloacae BAA-2468 assessed as reduction in microbial growth at 8 ug/ml measured after 16 to 18 hrs in presence of meropenem by microbial dilution method", "type": "functional", "settings": "dose 8 µg/ml, time 16-18 hrs"}, "Escherichia coli [27]": {"test_system": "Escherichia coli", "experiment": "Synergistic antibacterial activity against carbapenem-resistant Escherichia coli 565988 assessed as reduction in microbial growth at 4 ug/ml measured after 16 to 18 hrs in presence of imipenem by microbial dilution method", "type": "functional", "settings": "dose 4 µg/ml, time 16-18 hrs"}, "Escherichia coli [28]": {"test_system": "Escherichia coli", "experiment": "Synergistic antibacterial activity against carbapenem-resistant Escherichia coli 571307 assessed as reduction in microbial growth at 16 ug/ml measured after 16 to 18 hrs in presence of meropenem by microbial dilution method", "type": "functional", "settings": "dose 16 µg/ml, time 16-18 hrs"}, "[29]": {"target": "Metallo-beta-lactamase type 2 (Bacteria) (UniProt C7C422)", "experiment": "Induction of thermal stabilization of NDM-1 (unknown origin) assessed as increase in melting temperature by differential scanning fluorimetry analysis", "settings": "dose 3.12-50 µM"}, "Klebsiella pneumoniae [30]": {"test_system": "Klebsiella pneumoniae", "experiment": "Anti-infective activity against carbapenem-resistant Klebsiella pneumoniae ATCC BAA 2146 expressing NDM-1 infected in neutropenic female BALB/c mouse deep thigh infection model assessed as reduction in bacterial count at 20 mg/kg,sc pre-infected with bacteria for 2 hrs followed by compound addition and measured after 26 hrs in presence of imipenem", "type": "functional"}, "Klebsiella pneumoniae [31]": {"test_system": "Klebsiella pneumoniae", "experiment": "Synergistic antibacterial activity against carbapenem-resistant Klebsiella pneumoniae BAA-2473 assessed as reduction in microbial growth at 16 ug/ml measured after 16 to 18 hrs in presence of meropenem by microbial dilution method", "type": "functional", "settings": "dose 16 µg/ml, time 16-18 hrs"}, "Escherichia coli [32]": {"test_system": "Escherichia coli", "experiment": "Synergistic antibacterial activity against carbapenem-resistant Escherichia coli BAA-2469 assessed as reduction in microbial growth at 16 ug/ml measured after 16 to 18 hrs in presence of meropenem by microbial dilution method", "type": "functional", "settings": "dose 16 µg/ml, time 16-18 hrs"}}, "note": "Active and inactive are the calls of the source. No cut-off for these calls is given here."}
{"smiles": "COc1ccc(Cl)cc1-c1c(C(=O)O)[nH]c2c1CCc1ccccc1-2", "values": [{"measurement": "MIC", "setting": "Klebsiella pneumoniae [1]", "value": 32, "unit": "µg/mL"}, {"measurement": "MIC", "setting": "Escherichia coli [2]", "value": "< 0.5", "unit": "µg/mL"}, {"measurement": "IC50 at 24 h", "setting": "[3]", "value": "> 200000", "unit": "nM"}, {"measurement": "microsomal CLint at 1 µM", "setting": "[4]", "value": 12.9, "unit": "µL/min/mg"}, {"measurement": "MIC", "setting": "[5]", "value": 64, "unit": "µg/mL"}, {"measurement": "MIC", "setting": "Escherichia coli [6]", "value": 64, "unit": "µg/mL"}, {"measurement": "MIC", "setting": "Escherichia coli [7]", "value": 1, "unit": "µg/mL"}, {"measurement": "IC50", "setting": "[8]", "value": 14, "unit": "nM"}, {"measurement": "MIC", "setting": "Escherichia coli [9]", "value": 32, "unit": "µg/mL"}, {"measurement": "Papp at 5 h", "setting": "[10]", "value": 14, "unit": "×10⁻⁶ cm/s"}, {"measurement": "MIC", "setting": "Escherichia coli [11]", "value": 16, "unit": "µg/mL"}, {"measurement": "solubility kinetic at 24 h", "setting": "[12]", "value": 19.7, "unit": "µg/mL"}, {"measurement": "MIC", "setting": "Escherichia coli [13]", "value": 1, "unit": "µg/mL"}, {"measurement": "MIC", "setting": "Klebsiella pneumoniae [14]", "value": 32, "unit": "µg/mL"}, {"measurement": "Tm", "setting": "[15]", "value": 19, "unit": "°C"}, {"measurement": "MIC", "setting": "Escherichia coli [16]", "value": 16, "unit": "µg/mL"}, {"measurement": "MIC", "setting": "Klebsiella pneumoniae [17]", "value": 8, "unit": "µg/mL"}, {"measurement": "remaining at 1 h, 1 µM", "setting": "[18]", "value": 56, "unit": "%"}, {"measurement": "MIC", "setting": "Escherichia coli [19]", "value": 4, "unit": "µg/mL"}, {"measurement": "fraction unbound at 5 h, 10 µM", "setting": "[20]", "value": 0.992}, {"measurement": "MIC", "setting": "Escherichia coli [21]", "value": 4, "unit": "µg/mL"}, {"measurement": "MIC", "setting": "Enterobacter cloacae [22]", "value": 64, "unit": "µg/mL"}, {"measurement": "MIC", "setting": "[23]", "value": 2, "unit": "µg/mL"}, {"measurement": "MIC", "setting": "[24]", "value": 32, "unit": "µg/mL"}, {"measurement": "MIC", "setting": "Klebsiella pneumoniae [25]", "value": 32, "unit": "µg/mL"}, {"measurement": "MIC", "setting": "Enterobacter cloacae [26]", "value": 8, "unit": "µg/mL"}, {"measurement": "MIC", "setting": "Escherichia coli [27]", "value": 1, "unit": "µg/mL"}, {"measurement": "MIC", "setting": "Escherichia coli [28]", "value": 0.5, "unit": "µg/mL"}, {"measurement": "Activity", "setting": "[29]", "value": "Active"}, {"measurement": "Activity", "setting": "Klebsiella pneumoniae [30]", "value": "~2.2", "unit": "log10CFU/ml"}, {"measurement": "MIC", "setting": "Klebsiella pneumoniae [31]", "value": 8, "unit": "µg/mL"}, {"measurement": "MIC", "setting": "Escherichia coli [32]", "value": 2, "unit": "µg/mL"}]}
